Test results reported in patent US10654884B2 (Vitae Pharmaceuticals, Inc., priority 2014, dated 2020).

What was measured:
[1] = target: T1, CD73 on U138 neuroglioma cells (Homo sapiens, UniProt P21589); experiment: Inhibition of Ecto-5′-Nucleotidase Activity in U138 Neuroglioma Cells (Assay 2); type: cell-based; conditions: 50 μM CMP, 2 hr at 37° C., malachite green readout, read-out: Assay 2: IC50, inhibition of ecto-5′-nucleotidase activity in U138 neuroglioma cells
T1 construct: U138 neuroglioma cells, which express CD73 on their surface; endogenous in cells; host or cells: U138 neuroglioma cells (ATCC)
T1 sequence (P21589 27-549): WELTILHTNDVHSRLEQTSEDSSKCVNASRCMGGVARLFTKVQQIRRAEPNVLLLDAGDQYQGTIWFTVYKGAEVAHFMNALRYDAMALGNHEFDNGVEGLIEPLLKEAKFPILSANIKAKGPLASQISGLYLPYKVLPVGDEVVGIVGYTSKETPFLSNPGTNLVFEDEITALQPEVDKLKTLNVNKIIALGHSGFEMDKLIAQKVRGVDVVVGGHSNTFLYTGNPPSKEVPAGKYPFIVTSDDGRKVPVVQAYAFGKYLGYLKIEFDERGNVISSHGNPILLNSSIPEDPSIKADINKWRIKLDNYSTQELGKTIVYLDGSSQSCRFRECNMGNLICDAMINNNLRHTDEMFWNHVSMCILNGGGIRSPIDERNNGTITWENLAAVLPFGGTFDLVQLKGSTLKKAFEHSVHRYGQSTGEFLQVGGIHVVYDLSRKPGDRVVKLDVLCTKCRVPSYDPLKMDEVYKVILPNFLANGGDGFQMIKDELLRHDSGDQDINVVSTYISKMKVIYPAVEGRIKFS
Procedure, shortened: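 Whole-cell CD73 activity in U138 human neuroglioma cells seeded the day before, washed free of phosphate, then given test compound dilutions with 50 μM CMP in HEPES-buffered saline, pH 7.4, DMSO ≤0.1%. Incubated 2 hr at 37° C; released inorganic phosphate in supernatant measured by malachite green; IC50 by nonlinear regression.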

human CD73 = target: T2, human CD73 (Homo sapiens, UniProt P21589); experiment: Inhibition of 5′-Nucleotidase Activity of CD73 (Assay 1); type: biochemical; conditions: human CD73 4 ng/ml, 50 μM CMP, 20 min at RT, malachite green readout; read-out: Assay 1: IC50, inhibition of 5′-nucleotidase activity of CD73
T2 construct: purchased R&D Systems 5795-EN-010
T2 sequence (P21589 27-549): T1 sequence (P21589 27-549)
Procedure, shortened: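 Human CD73 (4 ng/ml final) was incubated with 50 μM CMP in 25 mM Tris-HCl pH 7.4, 0.005% Brij-35 for 20 min at RT. Reactions were stopped with malachite green reagent and absorbance was read at 620 nm. IC50 came from a 4-parameter logistic fit.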

| SMILES | IC50 [1] [nM] | IC50 (human CD73) [nM] |
| --- | --- | --- |
| CS(=O)(=O)C(OC[C@H]1O[C@@H](n2cnc3c(N)nc(Cl)nc32)[C@H](O)[C@@H]1O)P(=O)(O)O (single isomer, unassigned) [Example 10] | 100 to 1000 | 100 to 1000 |
| Nc1nc(I)nc2c1ncn2[C@@H]1O[C@H](CO[C@H](C(=O)O)P(=O)(O)O)[C@@H](O)[C@H]1O [Example 59, (S)-2-(((2R,3S,4R,5R)-5-(6-amino-2-iodo-9H-purin-9-yl)-3,4-dihydroxytetrahydrofuran-2-yl)methoxy)-2-phosphonoacetic Acid] | 100 to 1000 | < 100 |
| Cc1nc(N)c2ncn([C@@H]3O[C@H](COC(C(=O)O)P(=O)(O)O)[C@@H](O)[C@H]3O)c2n1 (single isomer, unassigned) [Example 69a] | > 1000 | 100 to 1000 |
| CC(C)(C)OC(=O)[C@@H](OC[C@H]1O[C@@H](n2cnc3c(N)nc(C#N)nc32)[C@H](O)[C@@H]1O)P(=O)(O)O (single isomer, unassigned) [Example 54b] | 100 to 1000 | < 100 |
| CCOC(=O)[C@H](OC[C@H]1O[C@@H](n2cnc3c(N)nc(-c4ccccc4)nc32)[C@H](O)[C@@H]1O)P(=O)(O)O (single isomer, unassigned) [Example 40] | 100 to 1000 | < 100 |
| CCOC(=O)C(OC[C@H]1C[C@@H](n2cnc3c(N)nc(Cl)nc32)[C@H](O)[C@@H]1O)P(=O)(O)O (single isomer, unassigned) [Example 76a] | 100 to 1000 | 100 to 1000 |
| CCOC(=O)[C@@H](OC[C@H]1O[C@@H](n2cnc3c(N)nc(Cc4ccccc4)nc32)[C@H](O)[C@@H]1O)P(=O)(O)O (single isomer, unassigned) [Example 39a] | > 1000 | > 1000 |
| Nc1nc(F)nc2c1ncn2[C@@H]1O[C@H](CO[C@H](C(=O)O)P(=O)(O)O)[C@@H](O)[C@H]1O [Example 53a, (S)-2-(((2R,3S,4R,5R)-5-(6-amino-2-fluoro-9H-purin-9-yl)-3,4-dihydroxytetrahydrofuran-2-yl)methoxy)-2-phosphonoacetic acid] | > 1000 | > 1000 |
| O=C(O)C(OC[C@H]1O[C@@H](n2cnc3c(Cl)nc(Cl)nc32)[C@H](O)[C@@H]1O)P(=O)(O)O (stereo partly drawn) [Example 62, 2-(((2R,3S,4R,5R)-5-(2,6-dichloro-9H-purin-9-yl)-3,4-dihydroxytetrahydrofuran-2-yl)methoxy)-2-phosphonoacetic acid] | 100 to 1000 | < 100 |
| CCOC(=O)[C@H](OC[C@H]1C[C@@H](n2cnc3cccc(Cl)c3c2=O)[C@H](O)[C@@H]1O)P(=O)(O)O (single isomer, unassigned) [Example 70] | > 1000 | 100 to 1000 |
| CC(C)(C)OC(=O)[C@H](OC[C@H]1O[C@@H](n2cnc3c(N)nc(Cl)nc32)[C@H](O)[C@@H]1O)P(=O)(O)O (single isomer, unassigned) [Example 15] | < 100 | < 100 |
| CCOC(=O)[C@H](OC[C@H]1O[C@@H](n2cnc3c(N)nc(-c4ncco4)nc32)[C@H](O)[C@@H]1O)P(=O)(O)O (single isomer, unassigned) [Example 49] | 100 to 1000 | < 100 |
| Cc1nnc(C(OC[C@H]2O[C@@H](n3cnc4c(N)nc(Cl)nc43)[C@H](O)[C@@H]2O)P(=O)(O)O)o1 (single isomer, unassigned) [Example 21] | 100 to 1000 | < 100 |
| CCOC(=O)[C@H](OC[C@H]1O[C@@H](n2cnc3c(-n4ccnc4)nc(Cl)nc32)[C@H](O)[C@@H]1O)P(=O)(O)O (single isomer, unassigned) [Example 26] | < 100 | < 100 |
| O=C(O)C(OC[C@H]1O[C@@H](n2cnc3c(N[C@H]4CCOC4)nc(Cl)nc32)[C@H](O)[C@@H]1O)C(=O)O [Example 83, 2-(((2R,3S,4R,5R)-5-(2-chloro-6-(((S)-tetrahydrofuran-3-yl)amino)-9H-purin-9-yl)-3,4-dihydroxytetrahydrofuran-2-yl)methoxy)malonic acid] | > 1000 | 100 to 1000 |
| CCOC(=O)C(OC[C@H]1C[C@@H](n2nnc3c(N)nc(Cl)nc32)[C@H](O)[C@@H]1O)P(=O)(O)O (single isomer, unassigned) [Example 77] | 100 to 1000 | < 100 |

Continued, values first:

| IC50 [1] [nM] | IC50 (human CD73) [nM] | SMILES |
| --- | --- | --- |
| < 100 | < 100 | CCOC(=O)C(OC[C@H]1C[C@@H](n2nnc3c(NC4CCCC4)nc(Cl)nc32)[C@H](O)[C@@H]1O)P(=O)(O)O (stereo partly drawn) [Example 92, (1-(((1R,2R,3S,4R)-4-(5-chloro-7-(cyclopentylamino)-3H-[1,2,3]triazolo[4,5-d]pyrimidin-3-yl)-2,3-dihydroxycyclopentyl)methoxy)-2-ethoxy-2-oxoethyl)phosphonic Acid] |
| < 100 | < 100 | CCOC(=O)C(OC[C@H]1C[C@@H](n2nnc3c(NC[C@@H]4CCOC4)nc(Cl)nc32)[C@H](O)[C@@H]1O)P(=O)(O)O (stereo partly drawn) [Example 88, (1-(((1R,2R,3S,4R)-4-(5-chloro-7-((((S)-tetrahydrofuran-3-yl)methyl)amino)-3H-[1,2,3]triazolo[4,5-d]pyrimidin-3-yl)-2,3-dihydroxycyclopentyl)methoxy)-2-ethoxy-2-oxoethyl)phosphonic Acid] |
| < 100 | < 100 | Nc1nc(Cl)nc2c1ncn2[C@@H]1O[C@H](COC(Cc2ccc(F)cc2)(C(=O)O)C(=O)O)[C@@H](O)[C@H]1O [Example 4, 2-(((2R,3S,4R,5R)-5-(6-amino-2-chloro-9H-purin-9-yl)-3,4-dihydroxytetrahydrofuran-2-yl)methoxy)-2-(4-fluorobenzyl)malonic acid] |
| < 100 | < 100 | CCOC(=O)C(OC[C@H]1C[C@@H](n2cnc3c(N)nc(Cl)nc32)[C@H](O)[C@@H]1O)P(=O)(O)O (single isomer, unassigned) [Example 76] |
| < 100 | < 100 | Nc1nc(Cl)nc2c1ncn2[C@@H]1O[C@H](COC(Cc2ccccn2)(C(=O)O)C(=O)O)[C@@H](O)[C@H]1O [Example 93, 2-(((2R,3S,4R,5R)-5-(6-amino-2-chloro-9H-purin-9-yl)-3,4-dihydroxytetrahydrofuran-2-yl)methoxy)-2-(pyridin-2-ylmethyl)malonic acid] |
| < 100 | < 100 | CC(C)COC(=O)[C@H](OC[C@H]1O[C@@H](n2cnc3c(N)nc(Cl)nc32)[C@H](O)[C@@H]1O)P(=O)(O)O (single isomer, unassigned) [Example 14] |
| < 100 | < 100 | CCOC(=O)[C@H](OC[C@H]1O[C@@H](n2cnc3c(NCc4ccccc4)nc(Cl)nc32)[C@H](O)[C@@H]1O)P(=O)(O)O (single isomer, unassigned) [Example 24] |
| < 100 | < 100 | Nc1nc(Cl)nc2c1ncn2[C@@H]1O[C@H](COC(Cc2ccccc2)(C(=O)O)C(=O)O)[C@@H](O)[C@H]1O [Example 7, 2-(((2R,3S,4R,5R)-5-(6-amino-2-chloro-9H-purin-9-yl)-3,4-dihydroxytetrahydrofuran-2-yl)methoxy)-2-benzylmalonic acid] |
| < 100 | < 100 | Nc1nc(Cl)nc2c1ncn2[C@@H]1O[C@H](COC(Cc2cc(F)cc(F)c2)(C(=O)O)C(=O)O)[C@@H](O)[C@H]1O [Example 96, 2-(((2R,3S,4R,5R)-5-(6-amino-2-chloro-9H-purin-9-yl)-3,4-dihydroxytetrahydrofuran-2-yl)methoxy)-2-(3,5-difluorobenzyl)malonic acid] |
